For orientation: Kd means a measure of binding affinity in units of concentration. A high value points to lower affinity. As usually defined, the IC50 is the concentration at which inhibition is half-maximal. Read a low IC50 as inhibition by little substance.

We go through 42 compounds from the Kinase Knowledgebase extract (Sharma et al. 2016).

Chain of MAPK14 (Q16539 whole entry, looked up): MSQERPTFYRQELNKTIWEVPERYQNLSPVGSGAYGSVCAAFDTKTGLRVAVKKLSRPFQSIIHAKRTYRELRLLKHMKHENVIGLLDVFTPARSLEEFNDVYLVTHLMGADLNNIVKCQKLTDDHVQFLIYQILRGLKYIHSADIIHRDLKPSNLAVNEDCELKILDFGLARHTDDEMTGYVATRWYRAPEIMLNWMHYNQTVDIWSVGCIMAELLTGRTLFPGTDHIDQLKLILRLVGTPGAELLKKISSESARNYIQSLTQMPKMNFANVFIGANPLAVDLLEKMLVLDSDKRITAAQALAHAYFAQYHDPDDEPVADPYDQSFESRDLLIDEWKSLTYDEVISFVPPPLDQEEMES

One test addresses MAPK14 (UniProt Q16539). Put plainly: Inhibition of MAPK14 Kinase Activity.
For `CCC(C)(C)c1cc(NC(=O)Nc2ccccc2)n(-c2ccccc2)n1`, the Kd turned out to be 12 nM. As to `CC(C)(C)c1cc(NC(=O)Nc2ccccc2)n(-c2ccc(N)cc2)n1`, the equilibrium dissociation constant (Kd) was 7 nM. On the same count and under the same terms, under `COCC(C)(C)c1cc(NC(=O)Nc2ccccc2)n(-c2ccccc2)n1` stands 1400 nM. The same measure, in the same setting: under `CC(C)(C)c1cc(NC(=O)NCc2ccccc2)n(-c2ccccc2)n1` stands 47 nM. The compound `COc1ccc(-n2nc(C(C)(C)C)cc2NC(=O)Nc2ccccc2)cc1` showed a dissociation constant Kd of 31 nM. On the same count and under the same terms, then `O=C(Nc1ccccc1)Nc1cc(C2CCCCC2)nn1-c1ccccc1`, with greater than 400 nM; and `CC1(c2cc(NC(=O)Nc3ccccc3)n(-c3ccccc3)n2)CCOCC1`, with 280 nM. Compound `CC(C)(C)c1cc(NC(=O)Nc2ccncc2)n(-c2ccccc2)n1` yielded a Kd of 1200 nM.

`COc1cccc(-n2nc(C(C)(C)C)cc2NC(=O)Nc2ccccc2)c1` displayed a dissociation constant Kd of 19 nM. On the same count and under the same terms, then `CC(C)(C)c1cc(NC(=O)Nc2cccc3ccccc23)n(-c2ccccc2)n1`, with 5 nM; and `CC(C)(C)c1cc(NC(=O)Nc2ccccc2)n(C2CCCCC2)n1`, with 500 nM; and `Cc1ccc(-n2nc(C(C)(C)C)cc2NC(=O)Nc2ccccc2)cc1C`, with 4 nM. In turn, `CC1(c2cc(NC(=O)Nc3ccccc3)n(-c3ccccc3)n2)CCCCC1` had a Kd of 22 nM. Still for that read-out and setting: then `Cc1cccc(-n2nc(C(C)(C)C)cc2NC(=O)Nc2ccccc2)c1`, with 2 nM; and `CC(C)(C)c1cc(NC(=O)NCCc2ccccc2)n(-c2ccccc2)n1`, with 260 nM. Same read-out and setting: under `Cc1cc(NC(=O)Nc2ccccc2)n(-c2ccccc2)n1` stands greater than 7000 nM; under `CC(C)(C)c1cc(NC(=O)NC2Cc3ccccc3C2)n(-c2ccccc2)n1`, 14 nM.

`Cc1cccc(NC(=O)Nc2cc(C(C)(C)C)nn2-c2ccccc2)c1C`: the Kd came to 3 nM. Compound `CC(C)(C)c1cc(NC(N)=O)n(-c2ccccc2)n1` displayed a Kd greater than 7000 nM. Same read-out and setting: under `Cc1ccc(-n2nc(C(C)(C)C)cc2NC(=O)Nc2cccc3ccccc23)cc1` stands 1 nM; under `Cc1ccc(-n2nc(C(C)(C)C)cc2NC(=O)Nc2ccccc2F)cc1`, 14 nM.

Compound `CC(C)(C)c1cc(NC(=O)Nc2ccccn2)n(-c2ccccc2)n1` gave an equilibrium dissociation constant (Kd) of 400 nM. Still for that read-out and setting: under `CC(C)(C)c1cc(NC(=O)Nc2cccc(N)c2)n(-c2ccccc2)n1` stands 100 nM; under `CC(C)c1cc(NC(=O)Nc2ccccc2)n(-c2ccccc2)n1`, 330 nM; under `CC(C)(C)c1cc(NC(=O)Nc2ccccc2)n(-c2ccncc2)n1`, 21 nM. The compound `CC(C)(C)c1cc(NC(=O)Nc2cccnc2)n(-c2ccccc2)n1` yielded a dissociation constant Kd of 420 nM. In the case of `CC(C)(C)c1cc(NC(=O)Nc2ccccc2)n(-c2ccc3ccccc3c2)n1`, the dissociation constant Kd is 8 nM.

The compound `CC(C)(C)c1cc(NC(=O)Nc2ccc(N)cc2)n(-c2ccccc2)n1` returned a Kd of 318 nM.

For `CC(C)(C)c1cc(NC(=O)Nc2ccccc2)n(-c2ccccc2)n1`, the dissociation constant Kd is 13 nM. `CC(C)(C)c1cc(NC(=O)Nc2ccc(Cl)cc2)n(-c2ccccc2)n1` showed an equilibrium dissociation constant (Kd) of 8 nM.

On to `CC(C)(C)c1cc(NC(=O)NC2CCCCC2)n(-c2ccccc2)n1`, for which the Kd is 130 nM. The compound `Cc1ccc(-n2nc(C(C)(C)C)cc2NC(=O)Nc2ccccc2)cc1` showed a dissociation constant Kd of 3 nM. The same measure, in the same setting: then `CC(C)(c1ccccc1)c1cc(NC(=O)Nc2ccccc2)n(-c2ccccc2)n1`, with 760 nM; and `Cc1ccccc1-n1nc(C(C)(C)C)cc1NC(=O)Nc1ccccc1`, with 200 nM.

The next test concerns the target CDK2 (UniProt P24941). Put plainly: Enzyme Assay.
Compound `CN1CCC(c2c(O)cc(O)c3c2O/C(=C\c2ccccc2)C3=O)CC1` had a half-maximal inhibitory concentration (IC50) of 1280 nM. Turning to `CN1CCC(c2c(O)cc(O)c3c2O/C(=C\c2ccccc2Cl)C3=O)CC1`, the IC50 was 3970 nM. For `CN1CCC(c2c(O)cc(O)c3c2O/C(=C\c2ccc([N+](=O)[O-])cc2)C3=O)CC1`, the IC50 came out at 310 nM.

Compound `COc1ccc2c(c1)C(=NNc1ccccc1)C(=O)N2` displayed an IC50 greater than 10000 nM. The compound `CN(C)S(=O)(=O)c1ccc(NN=C2C(=O)Nc3ccc(O)cc32)cc1` gave a concentration for half-maximal inhibition (IC50) of 10 nM. Same read-out and setting: under `O=C1Nc2ccc(Br)cc2C1=NNc1ccccc1` stands greater than 10000 nM; under `CN1CCC(c2c(O)cc(O)c3c2O/C(=C\c2ccc(S(N)(=O)=O)cc2)C3=O)CC1`, 30 nM; under `O=C1Nc2ccccc2C1=NNc1ccccc1`, greater than 10000 nM.
